Measurements: patent US5770575A, “Nipecotic acid derivatives as antithrombotic compounds” (Ortho Pharmaceutical Corporation, priority 1995, dated 1998)

How the values were obtained:
GPIIb/IIIa = target: T1, GPIIb/IIIa (Homo sapiens, UniProt P05106+P08514); experiment: In vitro solid phase purified glycoprotein IIb/IIIa binding assay (biotinylated fibrinogen); details: for inhibition at 50 µM: read-out: Binding (column Binding IC50), % @ 50 μM; for IC50: Table I
T1 sequence (P08514 32-887 limits assumed): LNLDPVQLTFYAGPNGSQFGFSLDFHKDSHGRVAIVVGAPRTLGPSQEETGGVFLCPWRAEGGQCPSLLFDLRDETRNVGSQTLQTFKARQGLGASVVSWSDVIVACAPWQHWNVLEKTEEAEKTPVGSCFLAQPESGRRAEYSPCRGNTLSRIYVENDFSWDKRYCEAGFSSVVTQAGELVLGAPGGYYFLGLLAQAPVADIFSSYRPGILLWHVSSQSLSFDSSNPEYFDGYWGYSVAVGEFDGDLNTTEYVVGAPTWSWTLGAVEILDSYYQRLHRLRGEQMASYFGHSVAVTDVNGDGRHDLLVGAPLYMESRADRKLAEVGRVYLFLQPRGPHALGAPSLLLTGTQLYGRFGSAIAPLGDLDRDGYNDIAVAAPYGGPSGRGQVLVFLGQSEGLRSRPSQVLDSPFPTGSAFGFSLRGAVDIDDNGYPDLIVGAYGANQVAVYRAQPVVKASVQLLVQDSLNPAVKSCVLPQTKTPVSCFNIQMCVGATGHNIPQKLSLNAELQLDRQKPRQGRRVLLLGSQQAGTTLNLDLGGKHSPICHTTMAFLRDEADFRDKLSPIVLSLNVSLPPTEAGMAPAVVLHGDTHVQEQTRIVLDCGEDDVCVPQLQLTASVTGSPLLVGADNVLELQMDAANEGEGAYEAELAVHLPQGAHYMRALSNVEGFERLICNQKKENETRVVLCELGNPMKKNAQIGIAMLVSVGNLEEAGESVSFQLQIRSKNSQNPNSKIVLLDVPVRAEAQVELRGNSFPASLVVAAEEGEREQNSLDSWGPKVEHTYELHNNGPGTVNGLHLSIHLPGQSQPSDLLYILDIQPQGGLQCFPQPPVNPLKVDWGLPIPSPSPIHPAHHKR
T1 sequence (P05106 27-788): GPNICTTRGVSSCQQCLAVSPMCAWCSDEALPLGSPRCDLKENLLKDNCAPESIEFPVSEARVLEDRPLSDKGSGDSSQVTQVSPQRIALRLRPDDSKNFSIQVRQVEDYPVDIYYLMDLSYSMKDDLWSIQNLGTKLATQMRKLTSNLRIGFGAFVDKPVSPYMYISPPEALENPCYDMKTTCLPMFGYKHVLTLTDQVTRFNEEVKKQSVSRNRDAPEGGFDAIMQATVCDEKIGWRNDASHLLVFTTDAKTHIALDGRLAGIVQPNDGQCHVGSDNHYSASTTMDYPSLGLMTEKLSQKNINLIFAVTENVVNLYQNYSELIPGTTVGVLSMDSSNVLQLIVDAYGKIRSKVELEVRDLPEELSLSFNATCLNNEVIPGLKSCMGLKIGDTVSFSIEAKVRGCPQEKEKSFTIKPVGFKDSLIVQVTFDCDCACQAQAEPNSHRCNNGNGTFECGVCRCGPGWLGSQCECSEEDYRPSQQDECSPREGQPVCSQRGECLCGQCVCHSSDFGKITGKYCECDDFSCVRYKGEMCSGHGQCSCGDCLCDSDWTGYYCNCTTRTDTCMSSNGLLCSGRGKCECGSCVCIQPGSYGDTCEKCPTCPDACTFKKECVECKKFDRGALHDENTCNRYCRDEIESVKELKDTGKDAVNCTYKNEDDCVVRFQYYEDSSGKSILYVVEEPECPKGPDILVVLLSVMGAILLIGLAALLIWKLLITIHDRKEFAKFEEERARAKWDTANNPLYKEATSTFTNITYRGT
Source text: The compounds of the present invention interrupt binding of fibrinogen to platelet glycoprotein IIb/IIIa (GPIIb/IIIa) and thereby inhibit platelet aggregation. […] Because the final, common pathway in normal platelet aggregation is the binding of fibrinogen to activated, exposed GPIIb/IIIa, inhibition of this binding represents a plausible antithrombotic approach. The receptor is activated by stimuli such as ADP, collagen, and thrombin, exposing binding domains to two different peptide regions of fibrinogen: α-chain Arg-Gly-Asp (RGD) and γ-chain 400-411.
IN VITRO SOLID PHASE PURIFIED GLYCOPROTEIN IIB/IIIA BINDING ASSAY.
The plate is covered and incubated overnight at 4° C. The GPIIb/IIa solution is discarded and 150 μl of 5% BSA is added and incubated at RT for 1-3 h. The plate is washed extensively with modified Tyrodes buffer. Biotinylated fibrinogen (25 μl/well) at 2× final concentration is added to the wells that contain the test compounds (25 μl/well) at 2× final concentration. The plate is covered and incubated at RT for 2-4 h. Twenty minutes prior to incubation completion, one drop of Reagent A (Vecta Stain ABC Horse Radish Peroxidase kit, Vector Laboratories, Inc.) and one drop Reagent B are added with mixing to 5 mL modified Tyrodes buffer mix and let stand. The ligand solution is discarded and the plate washed (5×200 μl/well) with modified Tyrodes buffer. Vecta Stain HRP-Biotin-Avidin reagent (50 μl/well, as prepared above) is added and incubated at RT for 15 min. The Vecta Stain solution is discarded and the wells washed (5×200 μl/well) with modified Tyrodes buffer. […] The absorbance is read at 490 nm.

gel-filtered platelets = experiment: In vitro inhibition of thrombin-induced gel-filtered platelet aggregation assay; type: cell-based; details: *Indicates IC50, read-out: Pl. Aggr. IC50
Description: IN VITRO INHIBITION OF THROMBIN-INDUCED GEL-FILTERED PLATELET AGGREGATION ASSAY.
The percentage of platelet aggregation is calculated as an increase in light transmission of compound treated platelet concentrate vs. control treated platelet concentrate. Blood is obtained from drug free, normal donors into tubes containing 0.13M sodium citrate. Platelet rich plasma (PRP) is collected by centrifugation of whole blood at 200×g for 10 min at 25° C. The PRP (5 mL) is gel filtered through Sepharose 2B (bed volume 50 mL), and the platelet count is adjusted to 2×10^7platelets per sample. The following constituents are added to a siliconized cuvette: concentrated platelet filtrate and Tyrode's buffer (0.1 4M NaCl, 0.0027M KCl, 0.01 2M NaHCO3, 0.76 mM Na2 HPO4, 0.0055M glucose, 2 mg/mL BSA and 5.0 mM HEPES @ pH 7.4) in an amount equal to 350 μl, 50 μl of 20 mM calcium and 50 μl of the test compound. Aggregation is monitored in a BIODATA aggregometerforthe 3 min following the addition of agonist (thrombin 50 μl of 1 unit/mL).

occlusive thrombus = experiment: In vivo dog study: thrombus formation in extracorporeal arteriovenous shunt; set-up: species or system mongrel dogs; details: for Thrombus Weight: mean ± SEM
Description: Compound 16 was tested in the following in vivo dog model to determine its therapeutic efficacy
(§1) Adult mongrel dogs of either sex 9-13 kg) were anesthetized with pentobarbital sodium (35 mg/kg, i.v.) and ventilated with room air via an endotracheal tube (12 strokes/min, 25 ml/kg). For arterial pressure determination, the left carotid artery was cannulated with a saline-filledpolyethylene catheter (PE-200) and connected to a Statham pressure transducer (P231D, Oxnard, Calif.). Mean arterial diastolic blood pressure. Heart rate was monitored using a cardiotachometer (Biotach, Gould
(§2) Electronics, Cleveland, Ohio) triggered from a lead 11 electrocardiogram generated by limb leads. A jugular vein was cannulated (PE-200) for drug administration. The left femoral artery and the left femoral vein were cannulated with silicon treated (Sigmacote, Sigma Chemical Co., St. Louis, Mo.), saline filled polyethylene tubing (PE-200) and connected with a 5 cm section of silicon treated tubing (PE-240) to form an extracorporeal arteriovenous shunt (A-V). Shunt patency was monitored using a Doppler flow system (model VF-1, Crystal Biotech Inc., Hopkinton, Mass.) and proximal to the locus of the shunt. All parameters were monitored continuously on a polygraph recorder (Gould TA-4000, Oxnard Calif.) at a paper speed of 10 mm/min.
(§3) On completion of a 15 min post surgical stabilization period, an occlusive thrombus was formed by the introduction of a thrombogenic surface (O braided silk thread, 5 cm in length, Ethicon Inc., Somerville, N.J.) into the shunt. Four consecutive 15 min shunt periods were employed with the first consisting of a vehicle infusion followed by increasing concentrations of Compound 16, SC-47643, saline with DMF or saline with citric acid administered as a bolus followed by an infusion beginning 5 min. before insertion of the thrombogenic surface and continued for an additional 15 min. AT the end of each 15 min shunt period the silk was carefully removed and weighed. A fifth shunt immediately following the total cumulative treatment dose was used to assess patency duration as indicated by time to total occlusion. Thrombus weight was calculated by subtracting the weight of the silk prior to placement from the total weight of the silk on removal from the shunt. Arterial blood was withdrawn prior to the first shunt and after each shunt period for determination of whole blood collagen-induced platelet aggregation, thrombin-induced platelet degranulation (platelet ATP release), prothrombin time and platelet count. Template bleeding time was performed beginning 10 min. into each shunt period.
(§4) Compound 16;1+0.03, 3+0.1 and 5+0.3 mg/kg, i.v. (bolus)+mg/kg/hr,i.v. (infusion) was solubilized in saline+DMF (5%) and serially diluted to achieve appropriate concentrations expressed as parent compound.
(§5) All values are expressed as the mean and standard error of the mean. Statistical significance of the change was assessed based on change from baseline suing analysis of variance and Student's t-test. Differences were considered significant when P<0.05.

platelet aggregation = experiment: In vivo dog study: gamma thrombin- and collagen-induced platelet aggregation; set-up: species or system mongrel dogs; details: mean ± SEM
Description: as §1, §2, §3
Whole blood platelet aggregation and ATP release were measured using a lumi-aggregation and ATP release were measured using a lumi-aggregometer (Chrono-log, Havertown, Pa.) by recording the change in impedance (platelet aggregation) and light transmission (ATP-release) through a stirred (1000 rpm) suspension of whole blood maintained at 37 C.
as §4, §5

SMILES: CC(C)(C)OC(=O)N[C@@H](CCCCN)C(=O)N1CCCC(C(=O)NCCCC(=O)O)C1 (stereo partly drawn) [Compound 9, Nα-Boc-L-Lys-Nip-γ-aminobutyric acid]
- inhibition at 50 µM (GPIIb/IIIa): 59%

SMILES: NCCCCCC(=O)N1CCCC(C(=O)NCCC(=O)O)C1 (stereo not drawn) [Compound 5, N-(Nε- nocaroyl)-Nip-β-Ala-OH]
- IC50 (GPIIb/IIIa): 13 nM
- IC50 (gel-filtered platelets): 1600 nM

SMILES: CC(C)NCCCC[C@H](NC(=O)OC(C)(C)C)C(=O)N1CCCC(C(=O)NCCC(=O)O)C1 (stereo partly drawn) [Compound 15, Nα-Boc-L-Lys(i-Pr)-Nip-β-Ala-OH]
- inhibition at 5 µM (GPIIb/IIIa; read-out: Binding (column Binding IC50), % @ 5 μM): 20%

SMILES: CC(=O)N[C@H](CCCCN)C(=O)N1CCCC(C(=O)NCCC(=O)O)C1 (stereo partly drawn) [Compound 13, Nα-Ac-D s-Nip-β-Ala-OH]
- IC50 (GPIIb/IIIa): 340 nM

SMILES: NCCCC[C@@H](N)C(=O)N1CCCC(C(=O)NCCC(=O)O)C1 (stereo partly drawn) [Compound 10, H-D-Lys-Nip-β-Ala-OH]
- IC50 (GPIIb/IIIa): 760 nM

SMILES: CC(C)(C)OC(=O)N[C@H](CCCCN)C(=O)N1CCCC(C(=O)NCCC(=O)O)C1 (stereo partly drawn) [Compound 3, Nα-Boc-D-Lys-Nip-γ-Ala--OH]
- IC50 (GPIIb/IIIa): 21 nM
- IC50 (gel-filtered platelets): 600 nM

SMILES: NCCCC[C@H](N)C(=O)N1CCCC(C(=O)NCCC(=O)O)C1 (stereo partly drawn) [Compound 4, H-L-Lys-Nip-γ-Ala-OH]
- IC50 (GPIIb/IIIa): 2600 nM

SMILES: CC(=O)N[C@@H](CCCCN)C(=O)N1CCCC(C(=O)NCC(=O)O)C1 (stereo partly drawn) [Compound 6, Nα-Ac-L-Lys-Nip-Gly-OH]
- inhibition at 50 µM (GPIIb/IIIa): 24%

SMILES: CC(C)(C)OC(=O)N[C@@H](CCCCN)C(=O)N1CCCC(C(=O)NCCC(=O)O)C1 (stereo partly drawn) [Compound 2, Nα-Boc-L-Lys-Nip-γ-Ala--OH]
- IC50 (GPIIb/IIIa): 740 nM

SMILES: CC(=O)N[C@@H](CCCCN)C(=O)N1CCCC(C(=O)NCCC(=O)O)C1 (stereo partly drawn) [Compound 7, Nα-Ac-L-Lys-Nip-β-Ala-OH]
- IC50 (GPIIb/IIIa): 74 nM

SMILES: CC(C)(C)OC(=O)N[C@H](CCCCN)C(=O)N1CCC[C@@H](C(=O)NCCC(=O)O)C1 [Compound 16, Nα-Boc-D-Lys-R-(-)-Nip-β-Ala-OH]
- Incidence of occlusive thrombus formation (animals per group) (occlusive thrombus; Period 2, Dose 1 (1+0.03 mg/kg iv bolus + mg/kg/hr infusion)): 2/4
- Incidence of occlusive thrombus formation (animals per group) (occlusive thrombus; Period 3, Dose 2 (3+0.1)): 1/4
- Incidence of occlusive thrombus formation (animals per group) (occlusive thrombus; Period 4, Dose 3 (5+0.3)): 0/4
- Incidence of occlusive thrombus formation (animals per group) (occlusive thrombus; Post Treatment, monitored for 60 min): 3/4
- Thrombus Weight (occlusive thrombus; Shunt 2 - Dose 1 (1+0.03)): 52 ± 3 mg
- Thrombus Weight (occlusive thrombus; Shunt 3 - Dose 2 (3+0.1), *P < 0.05): 27 ± 1 mg
- Thrombus Weight (occlusive thrombus; Shunt 4 - Dose 3 (5+0.3), *P < 0.05): 19 ± 2 mg
- Collagen-Induced Plat Agg (% inhib) (platelet aggregation; 2-Dose 1 (1+0.03)): 14 ± 3 % inhib
- G-Thrombin-Induced Plat Agg (% inhib) (platelet aggregation; 2-Dose 1 (1+0.03)): 8 ± 5 % inhib
- Collagen-Induced Plat Agg (% inhib) (platelet aggregation; 3-Dose 2 (3+0.1), *P < 0.05): 99 ± 1 % inhib
- G-Thrombin-Induced Plat Agg (% inhib) (platelet aggregation; 3-Dose 2 (3+0.1), *P < 0.05): 34 ± 8 % inhib
- Collagen-Induced Plat Agg (% inhib) (platelet aggregation; 4-Dose 3 (5+0.3), *P < 0.05): 100 ± 0 % inhib
- G-Thrombin-Induced Plat Agg (% inhib) (platelet aggregation; 4-Dose 3 (5+0.3), *P < 0.05): 72 ± 8 % inhib
- G-Thrombin-Induced Plat Agg (% inhib) (platelet aggregation; 30 min post): 21 ± 8 % inhib
- Collagen-Induced Plat Agg (% inhib) (platelet aggregation; 30 min post, *P < 0.05): 82 ± 13 % inhib
- G-Thrombin-Induced Plat Agg (% inhib) (platelet aggregation; 60 min post): 11 ± 5 % inhib
- Collagen-Induced Plat Agg (% inhib) (platelet aggregation; 60 min post, *P < 0.05): 57 ± 14 % inhib

SMILES: CC(C)(C)OC(=O)N[C@@H](CCCCNC(=O)OCc1ccccc1)C(=O)N1CCCC(C(=O)NCCC(=O)OCc2ccccc2)C1 (stereo partly drawn) [Compound 1, Nα-Boc-L-Lys(Cbz)-Nip-Ala-OBn]
- IC50 (GPIIb/IIIa): 20100 nM
